Measurements reported in patent US6921775B2, “Methods for modulating brain damage” (Children's Medical Center Corporation, priority 2001, dated 2005).

Key:
[1] = tested on: AMPA receptors in cerebral white matter; assay: Intracerebral AMPA injection white matter injury; type: in vivo; details: P7 rats, 5 nmol AMPA plus 5 nmol MK-801, systemic NBQX post-treatment, t test p<0.005
Protocol: The methods used in this example are described in Follett et al. (2000) J. Neurosci. 20:9235-9241, incorporated by reference herein.
NBQX attenuation of the selective white matter injury after hypoxia/ischemia implicated GluR-mediated toxicity as an important mechanism of injury in immature OLs. To confirm a relationship between the activation of AMPA receptors in cerebral white matter and the vulnerability to injury, AMPA was injected directly into immature white matter. […] Minimal to no injury was present in vehicle-injected controls (M K801 alone; n=7) at the same age (t test, p<0.001).
To determine whether AMPA toxicity was age dependent, lesion size after intracerebral AMPA injections at P4, P7, and P11 was compared.

[2] = tested on: oligodendrocyte precursor cells; assay: 45Ca2+ uptake in oligodendrocyte precursor cells; type: cell-based, rat; details: NBQX 100 μM, topiramate 30 μM, uptake after 10 minutes; for OGD-induced Ca2+ accumulation (45Ca2+ uptake): OGD for 2 hr; for kainate-evoked Ca2+ entry (45Ca2+ uptake): kainate 300 μM
Protocol: Primary oligodendrocyte precursor cells were isolated from mixed glial cultures of the forebrains of newborn Sprague-Dawley rats using a selective detachment procedure as described in detail elsewhere (McCarthy and de Vellis, 1980; Back et al., 1998), and further purified by differential adhesion (Back et al., 1998). Precursor cells were maintained in a chemically-defined medium (CDM) supplemented with recombinant human platelet derived growth factor-AA (PDGF, 10 ng/ml) and basic fibroblast growth factor (bFGF, 10 ng/ml). The CDM was Dulbecco Modified Eagle's Medium (DMEM) containing D-glucose (25 mM), L-glutamine (4 mM), sodium pyruvate (1 mM), human apo-transferrin (50 μg/ml), bovine pancreatic insulin (5 μg/ml), sodium selenium (30 nM), hydrocortisone (10 nM), D-biotin (10 nM), and bovine serum albumin (BSA, 1 mg/ml). All chemicals were from Sigma. Precursor cells were maintained in the presence of growth factors (PDGF+bFGF) by refeeding with fresh medium every 48 hr for 7 days, to promote cell proliferation and prevent differentiation (Bogler et al., 1990). Experiments were performed with cultures maintained in CDM without the supplemental growth factors. These cultures were routinely characterized by immunochemical detection of cell-specific markers as described before (Back et al., 1998). Cultures at the beginning of experiments usually consisted of approximately 90% A2B5^+ oligodendrocyte precursors and less than 5% glial fibrillary acidic protein (GFAP)-positive astrocytes. Cells were plated on poly-DL-ornithine-coated 24-well plates for cell viability assays and on coated glass coverslips for immunocytochemistry, proliferation studies, and lineage analysis. To assay Ca^2+ influx, cultures were incubated with ^45CaCl2 (8 μCi/ml) at room temperature for 10 min, then washed with Hank's balanced salts-solution (HBSS) and lysed with 1% Triton-X 100 in HBSS. Radioactivity in the whole lysate was counted by liquid scintillation. To gain further insight into the mechanisms of the protective effect of topiramate and NBQX, kainate- or OGD-evoked calcium accumulation in oligodendrocyte precursor cells was investigated. Cultures were either not treated or given NBQX (100 μM) or topiramate (30 μM), together with ^45CaCl2 (8 μCi/ml), before adding kainate (300 μM) or after exposure to OGD for 2 hr. ^45Ca^2+ uptake was measured after 10 minutes.

[3] = tested on: O4+ OLs in subcortical white matter; assay: OL proliferation and maturation in vivo in pups without insult; set-up: species or system rat; details: 30 mg/kg topiramate or 20 mg/kg NBQX; for number of proliferating (BrdU labeled, O4+) OLs in subcortical white matter: 4 injections every 12 hours at P7 and P8, no insult, vs vehicle; for maturation of white matter (O4, O1, MBP immunohistostaining), qualitative: 4 injections every 12 hours at P7 and P8, at P9 or P11
Protocol: Litters of male Long Evans rat pups (Charles River Laboratories, Wilmington, Mass.) were raised with dams in a temperature-controlled environment with 12 hour light-dark cycles. Pups underwent carotid ligation and hypoxia at post-natal-day (P)7. They were recovered on a thermal blanket at 33-34° C. (baseline temperature for P7 rats) and returned to their dam for 48-96 hours prior to sacrifice. Treated pups were given intra-peritoneal (i.p.) injections of 0.1 cc solutions of topiramate, NBQX or vehicle every 12 hours for 48 hours at P7 and P8 for treatment, control and normal development studies.
Oligodendrocyte maturation and myelin expression were evaluated in animals treated for 48 hours with topiramate as compared with normal development. The sub-cortical white matter was evaluated by immunocytochemistry with antibodies to O4, O1 and myelin basic protein (MBP), for changes in pre-myelinating OL populations and in the pattern of MBP expression in rats sacrificed at P9, acutely after treatment. To evaluate for any permanent effect on mature myelination, the quantity of MBP at P28 in animals treated for 48 hours at P7/8 with topiramate was compared with untreated littermates by Western blot.
Histological and immunocytochemical (ICC) analysis was carried out on serial 20-30 μm coronal sections, cut by either cryostat (for pre-mounted sections) or freezing microtome (floating sections) from the anterior extent of the lateral ventricles through the posterior extent of the dorsal hippocampus. Representative sections from all experimental animals were stained with hematoxylin and eosin (HE) for routine evaluation.
For ICC evaluation, adjacent mounted sections were incubated in 5-10% normal goat serum for one hour to block non-specific binding and concurrently permeabilized in 0.1% Triton X-100. Slides were incubated with MBP antibody (SMA-99, Sternberger Monoclonals, Baltimore, Md.) at a dilution of 1:800 in PBS with 1% normal goat serum plus 0.1% Triton overnight at 4° C., followed by Oregon Green (Molecular Probes, Eugene, Oreg.) anti-mouse IgG secondary antibody for one hour at room temperature. […]
Litters were divided and pups received 4 injections, one every 12 hours for 48 hours at P7 and P8, of either vehicle (n=6), 30 mg/kg topiramate (n=7) or 20 mg/kg NBQX (n=7). […] At the completion of 48 hours the animals were sacrificed and the number of BrdU labeled, O4+ OLs present in the subcortical white matter of coronal sections (n=20/group) were counted (FIG. 5B). […] Furthermore, qualitative analysis of white matter by immunohistostaining for OL stage-specific markers O4, O1 and MBP was carried out in serial sections of the same animals evaluated above.

| SMILES | white matter injury (lesion size) after intracerebral AMPA [1] | OGD-induced Ca2+ accumulation (45Ca2+ uptake) [2] | kainate-evoked Ca2+ entry (45Ca2+ uptake) [2] | number of proliferating (BrdU labeled, O4+) OLs in subcortical white matter [3] | maturation of white matter (O4, O1, MBP immunohistostaining), qualitative [3] |
| --- | --- | --- | --- | --- | --- |
| NS(=O)(=O)c1cccc2c1c([N+](=O)[O-])cc1nc(O)c(O)nc12 [NBQX, 2,3-Dioxo-6-nitro-1,2,3,4-tetrahydrobenzo[f]quinoxaline-7-sulphonamide] | significantly attenuated white matter injury | fully prevented | completely blocked | No difference in the number of proliferating OLs was detected | No qualitative difference in maturation was seen |
| CC1(C)O[C@@H]2[C@@H](CO[C@@]3(COS(N)(=O)=O)OC(C)(C)O[C@@H]23)O1 [topiramate] |  | fully prevented | partially prevented | No difference in the number of proliferating OLs was detected | No qualitative difference in maturation was seen |
